Data: US5654296A, “Condensed heterocyclic compounds, their production and use” (priority 1994, dated 1997)
Structures can show the parent of a compound that is named as a salt.

Tests used:
serotonine (5-HT) uptake = assay: Activity to inhibit serotonine (5-HT) uptake; type: biochemical; conditions: rat whole brain; 3H-5-HT 10 nM; 37° C.; pH 7.4; read-out: 5-HT uptake inhibitory activity (IC50 μM)
Experimental: (a) Activity to inhibit serotonine (5-HT) uptake
(§1) The experiment was performed in accordance with the method of Hyttel et al. [Psychopharmacology 60, 13, 1978]. The whole brain of a rat was homogenized in 40 volumes of ice-cooled 0.32M sucrose solution containing 10 μM pargyline and, then, centrifuged (600×G) for 10 minutes. The supernatant was centrifuged (2500×G) for 55 minutes to provide a pellet. This pellet was suspended in Krebs-Ringer-phosphate buffer (pH 7.4; 122 mM NaCl, 4.82 mM KCl, 0.972 mM CaCl2, 1.21 mM MgSO4, 12.7 mM Na2 HPO4, 2.97 mM NaH2 PO4, 0.162 mM EDTA sodium, 10 mM glucose, 1.14 mM ascorbic acid) saturated with a mixed gas (95% O and 5% CO2). To 900 μl of this suspention was added a solution of the test drug (10 μl) in DMSO and the mixture was incubated at 37° C. for 5 minutes. Then, 100 μl of ^3 H-5-HT (final concentration 10 nM) was added and the mixture was further incubated at 37° C. for 5 minutes. This reaction mixture was filtered under suction using a GF/B filter and the filter was washed with 4 ml of the above-mentioned buffer. The radioactivity on the filter was measured by the liquid scintillation method.
The amount of the drug which caused a 50% decrease in 5-HT uptake is shown as 50% inhibitory activity (IC50) in Table 42.

[1] = system: norepinephrine (NE) uptake; assay: Activity to inhibit norepinephrine (NE) uptake; type: biochemical; conditions: rat cerebral cortex; 3H-NE; read-out: NE uptake inhibitory activity (IC50 μM)
Experimental: as §1
(b) Activity to inhibit norepinephrine (NE) uptake
Using the rat cerebral cortex and, as the substrate, ^3 H-NE, an experiment was performed by otherwise the same procedure as described for 5-HT.

[2] = system: 45Ca2+ uptake (veratrine-stimulated, rat cerebral cortex crude synaptosome fraction); assay: 45Ca2+ uptake inhibition experiment; type: biochemical; conditions: 30 μM veratrine, 37° C., 10 minutes, read-out: 45Ca2+ uptake inhibitory activity (IC50 μM)
Experimental: The rat cerebral cortex was homogenized in 10 volumes of ice-cooled 0.32M sucrose solution to prepare a crude synaptosome fraction (100×G, 10 min., 12000×G, 20 min.). […] To 900 μl of the homogenate was added a DMSO solution of the test drug (10 μl). The mixture was incubated at 37° C. for 10 minutes, followed by addition of 100 μl of a veratrine solution (containing 0.18 uci ^45 Ca^2+) at a final veratrine concentration of 30 μM. The mixture was incubated at 37° C. for 10 minutes, quenched with 4 ml of ice-cooled EGTA solution (120 mM sodium chloride, 5 mM potassium chloride, 5 mM EGTA, pH=7.5) and suction-filtered using a GF/B filter. The filter was washed twice with 4 ml each of a washing solution (132 mM sodium chloride, 5 mM potassium chloride, 1.3 mM magnesium chloride, 1.2 mM calcium, chloride, 20 mM Tris base, pH 7.5) and the radioactivity of […] was measured by the liquid scintillation method.
The ^45 Ca^2+ uptake inhibition rate was calculated by means of the following equation. [formula] A: The ^45 Ca^2+ uptake after 10 minutes' stimulation with 30 μM veratrine in the presence of the test drug
B: The ^45 Ca^2+ uptake in the absence of veratrine and in the presence of the test drug
C: The ^45 Ca^2+ uptake after 10 minutes' stimulation with 30 μM veratrine in the absence of the test drug
D: The ^45 Ca^2+ uptake in the absence of the test drug and in the absence of veratrine

[3] = target: T1, GnRH receptors (rat pituitary anterior lobe membrane fraction) (Rattus norvegicus, UniProt P30969); assay: 125I-leuprolerin GnRH receptor binding inhibition test, rat pituitary anterior lobe membrane fraction; conditions: 4° C., 90 minutes, read-out: Binding inhibitory activity (IC50 μM) Rat
T1 construct: the anterior lobe of the pituitary gland was isolated and washed with ice-cooled homogenate buffer; from tissue; host or cells: anterior lobe of the pituitary gland, male Wistar rats (8 weeks old), membrane fraction
T1 sequence (P30969 1-327): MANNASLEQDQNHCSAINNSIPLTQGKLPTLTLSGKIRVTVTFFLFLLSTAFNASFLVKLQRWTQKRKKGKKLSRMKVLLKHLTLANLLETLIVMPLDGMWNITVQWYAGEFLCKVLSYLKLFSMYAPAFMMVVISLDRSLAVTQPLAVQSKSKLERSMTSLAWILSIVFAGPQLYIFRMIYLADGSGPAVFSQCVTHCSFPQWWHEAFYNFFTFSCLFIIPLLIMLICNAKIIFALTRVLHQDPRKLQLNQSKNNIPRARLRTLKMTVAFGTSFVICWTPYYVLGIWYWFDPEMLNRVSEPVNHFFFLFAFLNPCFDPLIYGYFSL
Experimental: Ten (10) μl of 3×10^4 M aqueous leuprolerin solution and 10 μl of 0.01 mg/ml lactoperoxidase were taken in a tube and 10 μl of Na^125 I solution (37 MBq) was added. After stirring, 10 μl of 0.001% H2 O2 was added and the reaction was conducted at room temperature for 20 minutes. Then, 700 μl of 0.05% TFA solution was added to the tube to terminate the reaction and the reaction mixture was purified by reverse-phase HPLC. The HPLC conditions are shown below. ^125 I-leuprolerin was eluted after a retention time of 26-27 minutes. (B) Preparation of a Rat Pituitary Anterior Lobe Membrane Fraction Containing GnRH Receptors […] The pituitary tissue was floated in 2 ml of the homogenate buffer and homogenized using a Polytron homogenizer. The homogenate was centrifuged at 700×G for 15 minutes. The supernatant was taken in an ultracentrifuge tube and centrifuged at 100,000×G for 1 hour to provide a membrane fraction pellet. […] The membrane fraction recovered as a pellet was resuspended in 10 ml of assay buffer, divided into portions, preserved at -80° C. and thawed when needed. […] For the rat and human membrane fractions prepared in (B) and (D), each membrane fraction was diluted with assay buffer to a concentration of 200 μg/ml and distributed in 188 μl portions into tubes. As to the bovine membrane fraction prepared in (C), the membrane fraction was diluted with assay buffer to 750 μg/ml and distributed in 188 μl portions into tubes. […] Where the rat or bovine pituitary anterior lobe membrane fraction was used, the reaction was conducted at 4° C. for 90 minutes. Where the membrane fraction of the CHO with human GnRH receptors expressed was used, the reaction was carried out at 25° C. for 60 minutes. […] After filtration, the radioactivity of ^125 I-leuprolerin remaining on the filter was measured with a γ-counter. The expression (TB-SB)/(TB-NSB)×100 (where SB=radioactivity with the compound added, TB=maximum bound radioactivity, NSB=nonspecifically bound radioactivity) was calculated to find the binding inhibition rate of each test compound.

[4] = target: T2, GnRH receptors (bovine pituitary anterior lobe membrane fraction) (Bos taurus, UniProt P32236); assay: 125I-leuprolerin GnRH receptor binding inhibition test, bovine pituitary anterior lobe membrane fraction; conditions: 4° C., 90 minutes, read-out: Binding inhibitory activity (IC50 μM) Bovine
T2 construct: A bovine pituitary anterior lobe membrane fraction containing GnRH receptors was prepared; from tissue; host or cells: bovine pituitary anterior lobe, membrane fraction
T2 sequence (P32236 1-328): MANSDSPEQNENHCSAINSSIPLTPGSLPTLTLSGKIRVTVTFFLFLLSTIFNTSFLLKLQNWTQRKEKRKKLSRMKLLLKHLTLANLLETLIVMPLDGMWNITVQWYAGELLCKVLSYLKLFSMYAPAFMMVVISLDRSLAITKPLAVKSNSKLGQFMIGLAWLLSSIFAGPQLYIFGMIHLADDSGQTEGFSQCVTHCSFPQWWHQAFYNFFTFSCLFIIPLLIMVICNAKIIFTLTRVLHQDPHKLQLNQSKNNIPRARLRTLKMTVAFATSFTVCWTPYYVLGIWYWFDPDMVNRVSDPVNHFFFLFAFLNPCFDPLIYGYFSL
Experimental: Ten (10) μl of 3×10^4 M aqueous leuprolerin solution and 10 μl of 0.01 mg/ml lactoperoxidase were taken in a tube and 10 μl of Na^125 I solution (37 MBq) was added. After stirring, 10 μl of 0.001% H2 O2 was added and the reaction was conducted at room temperature for 20 minutes. Then, 700 μl of 0.05% TFA solution was added to the tube to terminate the reaction and the reaction mixture was purified by reverse-phase HPLC. The HPLC conditions are shown below. ^125 I-leuprolerin was eluted after a retention time of 26-27 minutes. (C) Preparation of a Bovine Pituitary Anterior Lobe Membrane Fraction Containing GnRH Receptors A bovine pituitary anterior lobe membrane fraction containing GnRH receptors was prepared by the same procedure as described under (B). However, a 10,000×G centrifugation supernatant was recentrifuged at 100,000×G for 1 hour to provide the membrane fraction pellet. […] For the rat and human membrane fractions prepared in (B) and (D), each membrane fraction was diluted with assay buffer to a concentration of 200 μg/ml and distributed in 188 μl portions into tubes. As to the bovine membrane fraction prepared in (C), the membrane fraction was diluted with assay buffer to 750 μg/ml and distributed in 188 μl portions into tubes. […] Where the rat or bovine pituitary anterior lobe membrane fraction was used, the reaction was conducted at 4° C. for 90 minutes. Where the membrane fraction of the CHO with human GnRH receptors expressed was used, the reaction was carried out at 25° C. for 60 minutes. […] After filtration, the radioactivity of ^125 I-leuprolerin remaining on the filter was measured with a γ-counter. The expression (TB-SB)/(TB-NSB)×100 (where SB=radioactivity with the compound added, TB=maximum bound radioactivity, NSB=nonspecifically bound radioactivity) was calculated to find the binding inhibition rate of each test compound.

Row | Structure (SMILES) | IC50 (serotonine (5-HT) uptake) [µM] | IC50 [1] [µM] | IC50 [2] [µM] | IC50 [3] [µM] | IC50 [4] [µM]
1 | c1ccc(C2(CCN3CCCCC34CCc3ccccc3C4)COCc3ccccc32)cc1 (stereo not drawn) [Example I-12, 3,4-Dihydro-1'-[2-(4-phenylisochroman-4-yl)ethyl]spiro[naphthalene-2(1H),2'-piperidine] hydrochloride] | 0.022 | 0.015 | 0.85 |  | 
2 | O=C1c2ccccc2CCC12CCCCN2CCCC1(c2ccccc2)COCc2ccccc21 (stereo not drawn) [Example I-49, 3,4-Dihydro-1'-[3-(4-phenylisochroman-4-yl)propyl]spiro[1-oxonaphthalene-2(1H),2'-piperidine] hydrochloride] |  |  |  | 0.5 | 10
3 | COc1cc2c(cc1OC)CC1(CCCCN1CCCC1(c3ccc(F)cc3)COCc3ccccc31)CC2 (stereo not drawn) [Example I-50, 3,4-Dihydro-6,7-dimethoxy-1'-{3-[4-(p-fluorophenyl)isochroman-4-yl]propyl}spiro[naphthalene-2(1H),2'-piperidine] hydrochloride] |  |  |  | 0.08 | 8
4 | O=C1c2ccsc2CCC12CCCCN2CCCC1(c2ccccc2)COCc2ccccc21 (stereo not drawn) [Example I-47, 6,7-Dihydro-1'-[3-(4-phenylisochroman-4-yl)propyl]spiro[4-oxobenzo(b)thiophene-5(4H),2'-piperidine] hydrochloride] |  |  |  | 0.3 | 7
5 | CN(CCCC1(c2ccccc2)CN(C(=O)Nc2ccccc2)Cc2ccccc21)Cc1ccccc1 (stereo not drawn) [IV-19, 4-[3-(N-Benzyl-N-methylamino)propyl]-4-phenyl-2-phenylcarbamoyl-1,2,3,4-tetrahydroisoquinoline hydrochloride] | 0.23 | 0.56 | 0.95 |  | 
6 | Fc1ccc(N2CCN(CCCC3(c4ccccc4)COCc4ccccc43)CC2)cc1 (stereo not drawn) [Example I-30, 4-{3-[4-(p-Fluorophenyl)piperazin-1-yl]propyl}-4-phenylisochroman dihydrochloride] | 0.068 | 0.59 | 1.59 |  | 
7 | COc1ccc2c(c1)CCC1(CCCCN1CCCC1(c3ccccc3)COCc3ccccc31)C2=O (stereo not drawn) [Example I-48, 3,4-Dihydro-6-methoxy-1'-[3-(4-phenylisochroman-4-yl)propyl]spiro[1-oxonaphthalene-2-(1H),2'-piperidine] hydrochloride] |  |  |  | 0.4 | 10
8 | COc1cccc(NC(=O)N2Cc3ccccc3C(CCN3CCN(c4ccc(F)cc4)CC3)(c3ccccc3)C2)c1 (stereo not drawn) [IV-20, 1,2,3,4-Tetrahydro-4-{2-[4-(p-fluorophenyl)piperazin-1-yl]ethyl}-2-(3-methoxyphenyl)carbamoyl-4-phenylisoquinoline hydrochloride] | 0.03 | 0.12 | 0.17 |  | 
9 | c1ccc(C2CCN(CCCC3(c4ccccc4)COCc4ccccc43)CC2)cc1 (stereo not drawn) [Example I-33, 4-[3-(4.-Phenylpiperidino)propyl]-4-phenylisochroman hydrochloride] | 0.27 | 0.55 | 0.69 |  | 
10 | c1ccc(C2(CCCNC3CCCc4ccccc43)COCc3ccccc32)cc1 (stereo not drawn) [Example I-51, 4-Phenyl-4-{3-[1-(1,2,3,4-tetrahydronaphthylamino)]propyl]isochroman hydrochloride] |  |  |  | 0.5 | 10
11 | COc1cc2c(cc1OC)CC1(CCCCN1CCCC1(c3ccccc3)COCc3ccccc31)CC2 (stereo not drawn) [Example I-37, 3,4-Dihydro-6,7-dimethoxy-1'-[3-(4-phenylisochroman-4-yl)propyl]spiro[naphthalene-2(1H),2'-piperidine] hydrochloride] |  |  |  | 0.03 | 6
